Test results taken from patent US10689374B1, “Pyrimidine-thiazolidinone derivatives” (UNITED ARAB EMIRATES UNIVERSITY, priority 2019, dated 2020).
“Also recorded” adds a separate entry of the source. Counter-ions that a name gives are not always drawn.

How the values were obtained:
β TC6 cells = assay: In vitro glucose uptake assay; type: cell-based; settings: each compound at a concentration of 10 μM
Protocol: FIG. 5A is a bar graph comparing the results of pioglitazone with compounds 130a-g, each at a concentration of 10 μM, for effect on glucose uptake from β TC6 cells.
FIG. 5B is a bar graph comparing the results of pioglitazone with compounds 112, 105a-d, 121, 117, 119, and 126, each at a concentration of 10 μM, for effect on glucose uptake from β TC6 cells.
FIG. 5C is a bar graph comparing the results of metformin with compound 138, each at a concentration of 10 μM, for effect on glucose uptake from β TC6 cells.
The results of the in vitro glucose uptake study are depicted in FIGS. 5A-5C.

βTC6 cells = assay: Insulin secretion from βTC6 cells (high range insulin Sandwich ELISA kit); type: cell-based; settings: compounds at 10^−12, 10^−9, 10^−6 M; for basal insulin secretion: absence of glucose; for glucose stimulated insulin release: presence of 2.8 mM glucose
Protocol: Secretion of insulin by βTC6 cells was measured using the high range insulin Sandwich ELISA kit.
Similarly, a variety of thiazolidinedione-2,4-dione-pyrimidine derivatives, at 10^−12, 10^−9, 10^−6 M concentrations, were investigated for their effect on insulin secretion in the absence and presence of 2.8 mM glucose from βTC6 cells. […] These compounds also increase insulin secretion in the presence of glucose and, thereby, prevent hyperglycemia.
The effects of rhodanine-pyrimidine derivatives 130a-g were also investigated at 10^−12, 10^−9, 10^−6 M concentrations, for effect on insulin secretion in absence and presence of 2.8 mM glucose in βTC6 cells.

CN=C1NC(=O)/C(=C\c2ccc(S(=O)(=O)[n+]3ccccc3)cc2)S1 [Compound 105a, 2-(Methylimino)-5-[4′-(N-pyridinesulfonyl)benzylidine]thiazolidin-4-one chloride salt]
glucose uptake (β TC6 cells): most potent activity
basal insulin secretion (βTC6 cells): significant decrease
glucose stimulated insulin release (βTC6 cells): significant increase

C/N=C1/NC(=O)/C(=C\c2ccc(S(=O)(=O)Nc3ccnc(N)n3)cc2)S1 [Compound 105b]
glucose uptake (β TC6 cells): most potent activity
basal insulin secretion (βTC6 cells): significant decrease
glucose stimulated insulin release (βTC6 cells): significant increase

Nc1nccc(NS(=O)(=O)c2ccc(/C=C3/SC(=O)NC3=O)cc2)n1 [Compound 105c]
glucose uptake (β TC6 cells): most potent activity
basal insulin secretion (βTC6 cells): no effect
glucose stimulated insulin release (βTC6 cells): significantly increased

CN=C1NC(=O)/C(=C\c2cnc(Nc3cccc4ccccc34)nc2)S1 [Compound 112]
glucose uptake (β TC6 cells): most potent activity

Nc1nccc(NC(=O)CC2SC(=O)NC2=O)n1 (stereo not shown) [Compound 117, N-(2′-Aminopyrimidin-4′-yl)-2-(2″,4″-dioxothiazolidin-5″-yl)acetamide]
glucose uptake (β TC6 cells): most potent activity
basal insulin secretion (βTC6 cells): significantly inhibited

Cc1ccc(S(=O)(=O)NC(=O)Nc2nccc(NC(=O)CC3SC(=O)NC3=O)n2)cc1 (stereo not shown) [Compound 119, 2-(2′,4′-Dioxothiazolidin-5-yl)-N-[2″-(p-tosylureido)pyrimidin-4″-yl]acetamide]
glucose uptake (β TC6 cells): most potent activity
basal insulin secretion (βTC6 cells): significantly increased

Cc1cc(O)nc(NC(=O)CN2C(=O)/C(=C\c3ccc(F)cc3)SC2=S)n1 [Compound 126, (E)-2-[5′-(p-Fluorobenzylidene)-4′-oxo-2′-thioxothiazolidin-3′-yl]-N-(4″-hydroxy-6″-methyl-pyrimidin-2″-yl)acetamide]
glucose uptake (β TC6 cells): enhancing the glucose uptake significantly (p<0.001)
basal insulin secretion (βTC6 cells): significant decrease
glucose stimulated insulin release (βTC6 cells): significant increase

CN(C)c1ncc(/C=C2\SC(=S)NC2=O)cn1 [Compound 130a]
basal insulin secretion (βTC6 cells): did not show any effect
glucose stimulated insulin release (βTC6 cells): did not show any effect

Nc1ncc(/C=C2\SC(=S)NC2=O)cn1 [Compound 130b, (Z)-5-[(2′-Aminopyrimidin-5′-yl)methylene]-2-thioxothiazolidin-4-one]
basal insulin secretion (βTC6 cells): significantly increased

CN(C)c1ncc(/C=C2\SC(=S)N(CC(=O)O)C2=O)cn1 [Compound 130c]
glucose stimulated insulin release (βTC6 cells): significantly increased

CC(C)Nc1ncc(/C=C2\SC(=S)N(CC(=O)O)C2=O)cn1 [Compound 130d]
basal insulin secretion (βTC6 cells): did not show any effect
glucose stimulated insulin release (βTC6 cells): did not show any effect

O=C(O)CN1C(=O)/C(=C/c2cnc(N3CCOCC3)nc2)SC1=S [Compound 130e]
glucose uptake (β TC6 cells): most potent activity
basal insulin secretion (βTC6 cells): significant increases
glucose stimulated insulin release (βTC6 cells): significant increases

CCCNc1ncc(/C=C2\SC(=S)N(CC(=O)O)C2=O)cn1 [Compound 130f]
glucose uptake (β TC6 cells): most potent activity
basal insulin secretion (βTC6 cells): significant increases
glucose stimulated insulin release (βTC6 cells): significant increases

O=C(O)CN1C(=O)/C(=C/c2cnc(NCc3ccccc3)nc2)SC1=S [Compound 130g, (Z)-2-{5′-[2″-(Benzylamino)pyrimidin-5″-yl]methylene-4′-oxo-2′-thioxothiazolidin-3′-yl}acetic acid]
glucose uptake (β TC6 cells): most potent activity; also recorded: enhancing the glucose uptake significantly (p<0.001)
glucose stimulated insulin release (βTC6 cells): significantly increased
